Target: T1, ferroportin (Fpn) (Mus musculus, UniProt Q9JHI9)
T1 construct: endogenous in cells; host or cells: J774 mouse macrophage cell line, induced with Fe(III)NTA
T1 sequence (Q9JHI9 1-570): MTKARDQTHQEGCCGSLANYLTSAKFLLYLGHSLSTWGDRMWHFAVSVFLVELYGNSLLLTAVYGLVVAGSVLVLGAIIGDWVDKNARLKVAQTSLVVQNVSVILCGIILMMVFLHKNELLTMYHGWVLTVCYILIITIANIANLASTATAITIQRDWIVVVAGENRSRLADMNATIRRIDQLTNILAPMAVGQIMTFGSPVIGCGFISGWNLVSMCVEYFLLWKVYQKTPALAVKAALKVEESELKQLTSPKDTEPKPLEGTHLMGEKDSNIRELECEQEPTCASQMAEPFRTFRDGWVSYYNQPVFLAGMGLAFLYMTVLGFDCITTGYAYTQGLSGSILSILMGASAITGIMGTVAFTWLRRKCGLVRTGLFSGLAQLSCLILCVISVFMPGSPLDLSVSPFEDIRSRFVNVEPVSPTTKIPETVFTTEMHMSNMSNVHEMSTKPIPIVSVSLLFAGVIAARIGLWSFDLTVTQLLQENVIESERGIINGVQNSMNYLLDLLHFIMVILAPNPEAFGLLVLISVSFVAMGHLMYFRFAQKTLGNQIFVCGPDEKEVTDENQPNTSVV
Experiment: Hepcidin Internalization Assay (J774)
Type: cell-based
Settings: Average (AVE) IC50 of multiple measurements; inhibition of TMR-hepcidin (25 nM) internalization into J774 cells
Description: This cellular assay allows quantification of the binding of hepcidin to ferroportin (Fpn) through microscopic detection of internalization of a fluorescently labeled hepcidin into J774 cells. […] Binding of hepcidin to Fpn triggers internalization and degradation of both hepcidin and Fpn. […] Therefore, microscopic detection of cell-associated TMR fluorescence is a measure of hepcidin binding to Fpn and internalization of hepcidin and Fpn. If TMR-hepcidin is prevented from binding to Fpn, cellular TMR fluorescence remains low (Durrenberger et al, 2013). The effect of small molecular weight Fpn inhibitor compounds in this assay was evaluated in vitro as described below. […] After removal of the paraformaldehyde solution, cells were washed 3 times with PBS leaving 100 μl per well and the plates were sealed with foil plate seal. TMR (530-550 nm excitation/575-625 nm emission/400 ms exposure time) and Hoechst 33342 (360-370 nm excitation/420-460 nm emission /10 ms exposure time) fluorescence images were acquired using a […] imager (Olympus) with a 20× high NA objective. […] The acquired image data was analysed with the […] analysis software. […] IC50 values were calculated with the Sum(Mean) raw data using “log(inhibitor) vs. response” curve fitting of Prism 5 software (GraphPad Software Inc., version 5.02). For each data set the fit of the “log(inhibitor) vs. response (three parameters)” model was compared to the fit of the “log(inhibitor) vs. response - Variable slope (four parameters)” model and the IC50 data of the preferred model was used.

SMILES | IC50 [nM]
CN(C)CCn1c(C2CN(CCc3nc(C(=O)NCc4ncccc4F)co3)C2)nc2ccccc21 [Example 97, 2-(2-(3-(1-(2-(dimethylamino)ethyl)-1H-benzo[d]imidazol-2-yl)azetidin-1-yl)ethyl)-N-((3-fluoropyridin-2-yl)methyl)oxazole-4-carboxamide] | 89
CCCCn1c(CCNCCc2nc(C(=O)NCc3ncccc3F)co2)nc2cc(OC)c(OC)cc21 [Example 87, 2-(2-((2-(1-butyl-5,6-dimethoxy-1 H-benzo[d]imidazol-2-yl)ethyl)amino)ethyl)-N-((3-fluoropyridin-2-yl)methyl)oxazole-4-carboxamide] | 17
O=C(NCc1ncccc1F)c1coc(CCNCCc2nc3cc4c(cc3n2CCOC2CCCCC2)OCCO4)n1 [Example 88, 2-(2-((2-(1-(2-(cyclohexyloxy)ethyl)-6,7-dihydro-1H-[1,4]dioxino[2′,3′:4,5]benzo[1,2-d]imidazol-2-yl)ethyl)amino)ethyl)-N-((3-fluoropyridin-2-yl)methyl)oxazole-4-carboxamide] | 0.9
COc1cccnc1CNC(=O)c1coc(CCNCCc2nc3cc4c(cc3n2CCOC2CCCCC2)OCCO4)n1 [Example 91, 2-(2-((2-(1-(2-(cyclohexyloxy)ethyl)-6,7-dihydro-1H-[1,4]dioxino[2′,3′:4,5]benzo[1,2-d]imidazol-2-yl)ethyl)amino)ethyl)-N-((3-methoxypyridin-2-yl)methyl)oxazole-4-carboxamide] | 2
COc1cccnc1CNC(=O)c1coc(CCNCCc2nc3cc4c(cc3n2CCc2ncco2)OCCO4)n1 [Example 95, N-((3-methoxypyridin-2-yl)methyl)-2-(2-((2-(1-(2-(oxazol-2-yl)ethyl)-6,7-dihydro-1 H-[1,4]dioxino[2′,3′:4,5]benzo[1,2-d]imidazol-2-yl)ethyl)amino)ethyl)oxazole-4-carboxamide] | 26
COCCn1c(CCNCCc2nc(C(=O)NCc3ncccc3F)co2)nc2cc3c(cc21)OCO3 [Example 69, N-((3-fluoropyridin-2-yl)methyl)-2-(2-((2-(5-(2-methoxyethyl)-5H-[1,3]dioxolo[4′,5′:4,5]benzo[1,2-d]imidazol-6-yl)ethyl)amino)ethyl)oxazole-4-carboxamide] | 3
CCCCn1c(CCNCCc2nc(C(=O)NCc3ccccn3)co2)nc2ccccc21 [Example 11, 2-(2-((2-(1-butyl-1 H-benzo[d]imidazol-2-yl)ethyl)amino)ethyl)-N-(pyridin-2-ylmethyl)oxazole-4-carboxamide] | 2
O=C(NCc1ncccc1F)c1coc(CCNCCc2nc3cc4c(cc3n2CCN2CCCCC2)OCCO4)n1 [Example 74, N-((3-fluoropyridin-2-yl)methyl)-2-(2-((2-(1-(2-(piperidin-1-yl)ethyl)-6,7-dihydro-1H-[1,4]dioxino[2′,3′:4,5]benzo[1,2-d]imidazol-2-yl)ethyl)amino)ethyl)oxazole-4-carboxamide] | 4.9
COCCn1c(CCNCCc2nc(C(=O)NCc3ncccc3OC)co2)nc2cc3c(cc21)OCO3 [Example 70, 2-(2-((2-(5-(2-methoxyethyl)-5H-[1,3]dioxolo[4′,5′:4,5]benzo[1,2-d]imidazol-6-yl)ethyl)amino)ethyl)-N-((3-methoxypyridin-2-yl)methyl)oxazole-4-carboxamide] | 3.9
COc1cccnc1CNC(=O)c1coc(CCNCCc2nc3cc4c(cc3n2CC(F)F)OCCO4)n1 [Example 68, 2-(2-((2-(1-(2,2-difluoroethyl)-6,7-dihydro-1 H-[1,4]dioxino[2′,3′:4,5]benzo[1,2-d]imidazol-2-yl)ethyl)amino)ethyl)-N-((3-methoxypyridin-2-yl)methyl)oxazole-4-carboxamide] | 7
O=C(NCc1ncccc1F)c1coc(CCNCCc2nc3cc4c(cc3n2CCN2CCOCC2)OCCO4)n1 [Example 81, N-((3-fluoropyridin-2-yl)methyl)-2-(2-((2-(1-(2-morpholinoethyl)-6,7-dihydro-1 H-[1,4]dioxino[2′,3′:4,5]benzo[1,2-d]imidazol-2-yl)ethyl)amino)ethyl)oxazole-4-carboxamide] | 4
O=C(NCc1ncccc1F)c1coc(CCNCCc2nc3cc4c(cc3n2-c2ccccc2)OCCO4)n1 [Example 83, N-((3-fluoropyridin-2-yl)methyl)-2-(2-((2-(1-phenyl-6,7-dihydro-1 H-[1,4]dioxino[2′,3′:4,5]benzo[1,2-d]imidazol-2-yl)ethyl)amino)ethyl)oxazole-4-carboxamide] | 1.9
CCCCn1c(C(C)(C)CNCCc2nc(C(=O)NCc3ncccc3F)co2)nc2ccccc21 [Example 60, 2-(2-((2-(1-butyl-1 H-benzo[d]imidazol-2-yl)-2-methylpropyl)amino)ethyl)-N-((3-fluoropyridin-2-yl)methyl)oxazole-4-carboxamide] | 355

Continued, values first:

IC50 [nM] | SMILES
0.8 | O=C(NCc1ncccc1F)c1coc(CCNCCc2nc3ccccc3n2Cc2ccccc2)n1 [Example 17, 2-(2-((2-(1-benzyl-1 H-benzo[d]imidazol-2-yl)ethyl)amino)ethyl)-N-((3-fluoropyridin-2-yl)methyl)oxazole-4-carboxamide]
9 | CN(C)CCn1c(CCNCCc2nc(C(=O)NCc3ncccc3F)co2)nc2ccccc21 [Example 56, 2-(2-((2-(1-(2-(dimethylamino)ethyl)-1 H-benzo[d]imidazol-2-yl)ethyl)amino)ethyl)-N-((3-fluoropyridin-2-yl)methyl)oxazole-4-carboxamide]
126 | O=C(O)Cn1c(CCNCCc2nc(C(=O)NCc3ncccc3F)co2)nc2ccccc21 [Example 14, 2-(2-(2-((2-(4-(((3-fluoropyridin-2-yl)methyl)carbamoyl)oxazol-2-yl)ethyl)amino)ethyl)-1H-benzo[d]imidazol-1-yl)acetic acid]
1.8 | CCCCn1c(CCNCCc2nc(C(=O)NCc3ncccc3F)co2)nc2ccc(-c3ccccc3OC)cc21 [Example 40, 2-(2-((2-(1-butyl-6-(2-methoxyphenyl)-1 H-benzo[d]imidazol-2-yl)ethyl)amino)ethyl)-N-((3-fluoropyridin-2-yl)methyl)oxazole-4-carboxamide]
2 | O=C(NCc1ncccc1F)c1coc(CCNCCc2nc3cc4c(cc3n2-c2ccccc2)OCO4)n1 [Example 82, N-((3-fluoropyridin-2-yl)methyl)-2-(2-((2-(5-phenyl-5H-[1,3]dioxolo[4′,5′:4,5]benzo[1,2-d]imidazol-6-yl)ethyl)amino)ethyl)oxazole-4-carboxamide]
5 | O=C(NCc1ncccc1F)c1coc(CCNCCc2nc3ccccc3n2CC(F)F)n1 [Example 53, 2-(2-((2-(1-(2,2-difluoroethyl)-1H-benzo[d]imidazol-2-yl)ethyl)amino)ethyl)-N-((3-fluoropyridin-2-yl)methyl)oxazole-4-carboxamide]
1 | CCCCn1c(CCNCCc2nc(C(=O)NCc3ncccc3OC)co2)nc2ccccc21 [Example 46, 2-(2-((2-(1-butyl-1 H-benzo[d]imidazol-2-yl)ethyl)amino)ethyl)-N-((3-methoxypyridin-2-yl)methyl)oxazole-4-carboxamide]
7 | CNC(=O)CCn1c(CCNCCc2nc(C(=O)NCc3ncccc3F)co2)nc2ccccc21 [Example 25, N-((3-fluoropyridin-2-yl)methyl)-2-(2-((2-(1-(3-(methylamino)-3-oxopropyl)-1 H-benzo[d]imidazol-2-yl)ethyl)amino)ethyl)oxazole-4-carboxamide]
0.8 | O=C(NCc1ncccc1F)c1coc(CCNCCc2nc3ccccc3n2Cc2ccc(Cl)cc2)n1 [Example 58, 2-(2-((2-(1-(4-chlorobenzyl)-1H-benzo[d]imidazol-2-yl)ethyl)amino)ethyl)-N-((3-fluoropyridin-2-yl)methyl)oxazole-4-carboxamide]
1 | CCCCn1c(CCNCCc2nc(C(=O)NCc3ncccc3Cl)co2)nc2ccccc21 [Example 9, 2-(2-((2-(1-butyl-1 H-benzo[d]imidazol-2-yl)ethyl)amino)ethyl)-N-((3-chloropyridin-2-yl)methyl)oxazole-4-carboxamide]
2 | O=C(NCc1ncccc1F)c1coc(CCNCCc2nc3ccccc3n2Cc2ccccn2)n1 [Example 3, N-((3-fluoropyridin-2-yl)methyl)-2-(2-((2-(1-(pyridin-2-ylmethyl)-1H-benzo[d]imidazol-2-yl)ethyl)amino)ethyl)oxazole-4-carboxamide]
